Laboratory results: the NIST ThermoML archive (doi:10.1016/j.fluid.2014.10.037)
Values joined by “and” are separate entries in the source; they are usually repeats but may differ in a detail not shown here. Identical values can stand only once.

Settings: Liquid, Closed cell (Static) method

CC(C)O [propan-2-ol]
Settings | vapor or sublimation pressure [kPa]
353.3 K | 93.8
373.5 K | 200.1
408.3 K | 593.8

Cc1ccco1 [2-methylfuran]
Settings | vapor or sublimation pressure
353.8 K | 161.8 kPa and 162.6 kPa
357.5 K | 181.5 kPa and 181.7 kPa
358.3 K | 186.5 kPa
362.4 K | 210.5 kPa
362.5 K | 211.1 kPa
363.1 K | 214.9 kPa
367.2 K | 242.1 kPa
367.4 K | 242.7 kPa
367.9 K | 246 kPa
373.4 K | 285.3 kPa
373.6 K | 286.4 kPa
373.9 K | 288.4 kPa
398.2 K | 527.6 kPa
398.4 K | 530.3 kPa
398.8 K | 533.8 kPa
403 K | 587.6 kPa
403.2 K | 591.7 kPa
403.3 K | 592.3 kPa
408.4 K | 667.2 kPa
408.6 K | 670.2 kPa
409 K | 676.7 kPa

OCc1ccco1 [2-hydroxymethylfuran]
Settings | vapor or sublimation pressure [kPa]
353.3 K | 2.6
373 K | 7
407.9 K | 30.1

c1ccoc1 [furan]
Settings | vapor or sublimation pressure [kPa]
353.4 K | 455.1
373.1 K | 735.6
407.9 K | 1513.3

O=Cc1ccco1 [2-furaldehyde]
Settings | vapor or sublimation pressure [kPa]
353.2 K | 5.9
373.4 K | 13.6
408 K | 46.3
